Measurements reported in patent US4734428A, “Aminoethylimidazole and cytoprotective and gastric antisecretory composition containing the same” (Jouveinal S.A., priority 1984, dated 1988).
pIC50: −log10 of the molar value. Where two headings read alike, the source gives them in different places.

Columns and labels:
[1] = acute toxicity (LD50, mice); details: mouse, in vivo, 14 days
Experimental: The acute toxicity of the products was investigated in male SWISS/IOPS mice weighing approximately 22 g. The 50% lethal dose (LD50) was calculated by the method of L. J. REED and H. MUNCH (Am. J. Hyg. 1939-37-493) 14 days following the […] treatment of batches of 10 animals per dose and on the basis of 4 to 6 doses per product. The results of this investigation are given in table 3 for the products of examples 1 to 8 and in table 4 for the products of examples 9 to 12.

gastric mucosa = assay: cytoprotection test, gastric ulceration caused by absolute ethanol; assay type: in vivo, Sprague Dawley rats; details: rat; for ED50 values relative to the two routes compared: oral versus parenteral (s.c.) route
Experimental: The cytoprotective activity was investigated in connection with the stressing of the gastric mucosa caused by ethanol.
The cytoprotection test was carried out in accordance with the procedure described by A. ROBERT et al (Gastroenterology 1979-77-433). Batches of six male Sprague Dawley rats, which had not received solid food for 24 hours before the test, received by the oral route 1 ml/rat of absolute ethanol, after receiving the product to be tested 30 minutes beforehand by the subcutaneous […] 1 hour beforehand by the oral route. One hour after ingesting the ethanol, the rats were killed by stretching and their stomachs were carefully removed, opened along the greater curvature, washed under running water and spread out. The ulcerations were then marked and measured under a binocular lamp. An index representing the sum of the lengths of the ulcers is then determined for each rat and the mean value of these indexes for each batch is calculated and compared with that of the control batch using the Student "t" test. The 50% effective dose (ED50) is then graphically determined when possible. In other cases, the percentage inhibition obtained with the aid of the maximum tested dose is given. The results are given in table 5 for the products of examples 1 to 8 and in table 6 for the products of examples 9 to 12.

thromboxane synthetase [2] = molecular target: T1, thromboxane synthetase (Oryctolagus cuniculus, UniProt G1TAZ9); assay: inhibition of TXB2 synthesis (thromboxane synthetase) in washed rabbit platelets; assay type: cell-based; details: for activity relative to 1-benzyl imidazole: reference 1-benzyl imidazole
T1 construct: carried out in vitro on washed rabbit platelets; endogenous in cells; host or cells: washed rabbit platelets
T1 sequence (G1TAZ9 1-530): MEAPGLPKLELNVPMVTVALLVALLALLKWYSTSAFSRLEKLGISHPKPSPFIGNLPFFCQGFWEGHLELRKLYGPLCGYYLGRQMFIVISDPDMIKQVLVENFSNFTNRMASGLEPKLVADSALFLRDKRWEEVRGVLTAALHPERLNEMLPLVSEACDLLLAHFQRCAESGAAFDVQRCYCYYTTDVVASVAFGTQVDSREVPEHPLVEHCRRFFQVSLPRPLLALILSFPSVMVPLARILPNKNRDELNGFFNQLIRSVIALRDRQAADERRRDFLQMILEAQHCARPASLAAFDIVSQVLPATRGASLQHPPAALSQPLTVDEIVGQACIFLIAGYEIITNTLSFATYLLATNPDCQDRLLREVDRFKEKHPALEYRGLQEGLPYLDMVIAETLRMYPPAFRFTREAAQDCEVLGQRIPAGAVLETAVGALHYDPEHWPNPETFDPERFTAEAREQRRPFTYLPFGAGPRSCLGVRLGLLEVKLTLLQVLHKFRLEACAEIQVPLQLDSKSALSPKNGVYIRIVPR
Experimental: (§1) The test performed was carried out in vitro on washed rabbit platelets. It was based on the publications of NEEDLEMAN (1977. Proc. Natl. Acad. Sci. 74, 1716) and SALMON (1982, Cardiovascular Pharmacol. of the Prostaglandins--Raven Press N.Y. pp. 7 to 22). It makes it possible both to determine the reduction of the synthesis of TXB2 and also the possible increase of the synthesis of PGE2. Thus, it is possible to determine the activity of the products on the PG:TX ratio.
(§2) The results given in the following tables are expressed in CEx%, i.e. in micromolar concentrations per liter permitting an inhibition by x% of the synthesis of TXB2. In the adjacent column, the symbol + means that the effect also causes an increase in the synthesis of PGE2.

synthesis of PGE2 = assay: increase of PGE2 synthesis in washed rabbit platelets; assay type: cell-based; parameters: key: +: the effect also causes an increase in the synthesis of PGE2; details: in vitro
Experimental: as §1, §2

thromboxane synthetase [3] = details: human platelets; literature; cited from earlier work
[4] = oral route, read-out: LD50 % oral route
[5] = sc, s.c. route, 30 minutes before absolute ethanol, read-out: ED50% s.c. route
[6] = washed rabbit platelets, in vitro, 50% inhibition of TXB2 synthesis, read-out: Inh. TX B2 CE50%
[7] = ip, read-out: LD50 % i.p. route
[8] = oral route, 1 hour before absolute ethanol, read-out: ED50% oral route

CCC(Cn1ccnc1)(c1ccccc1)N(C)C (single isomer, unassigned) [EX. 12, 1-[(2-phenyl-2-ethyl)-2-N,N-dimethylaminoethyl]-imidazole]
LD50 at 336 h [1, 4]: 780 mg/kg | ED50 (gastric mucosa; [5]): 5.3 mg/kg | pIC50 (thromboxane synthetase [2]; [6]): 4.95 | Incr. PGE2 (synthesis of PGE2): +

c1ccc(Cn2ccnc2)cc1 [1-Benzyl-Imidazole, 1-benzyl imidazole, reference compound]
pIC50 (thromboxane synthetase [2]): 4.87 | thromboxane synthetase inhibition in words (thromboxane synthetase [3]): thromboxane synthetase inhibitor

COc1ccc(CC(C)(Cn2ccnc2)N(C)C)cc1 (stereo not drawn) [EX. 9, 1-[(2-p-methoxybenzyl-2-methyl)-2-N,N-dimethylaminoethyl]imidazole dihemimaleate]
LD50 at 336 h [1, 7]: 231 mg/kg | LD50 at 336 h [1, 4]: 758 mg/kg | pIC50 (thromboxane synthetase [2]; [6]): 5.35 | activity relative to 1-benzyl imidazole (thromboxane synthetase [2]; washed rabbit platelets): equal to clearly superior activity | Incr. PGE2 (synthesis of PGE2): +

CN(C)C(C)(COc1ccc(Cl)cc1)Cn1ccnc1 (stereo not drawn) [EX. 10]
LD50 at 336 h [1, 7]: 32 mg/kg | LD50 at 336 h [1, 4]: 86 mg/kg | ED50 (gastric mucosa; [5]): 10 mg/kg | pIC50 (thromboxane synthetase [2]; [6]): 4.88 | Incr. PGE2 (synthesis of PGE2): +

CN(C)C(C)(Cn1ccnc1)c1ccc(-c2ccccc2)cc1 (stereo not drawn) [EX. 11]
LD50 at 336 h [1, 4]: 183 mg/kg | ED40 (gastric mucosa; sc, s.c. route, 30 minutes before absolute ethanol): 10 mg/kg | pIC50 (thromboxane synthetase [2]; [6]): 4.95 | Incr. PGE2 (synthesis of PGE2): +

CCC(Cn1ccnc1)(c1ccccc1)N(C)C (stereo not drawn) [Ex. 1A, 1-[(2-phenyl-2-ethyl)-2-N,N-dimethylaminoethyl]-imidazole]
LD50 at 336 h [1, 7]: 326 mg/kg | LD50 at 336 h [1, 4]: 559 mg/kg | ED50 (gastric mucosa; [8]): 13 mg/kg | ED50 values relative to the two routes compared (gastric mucosa): roughly equivalent | ED50 (gastric mucosa; [5]): 11 mg/kg | pIC50 (thromboxane synthetase [2]; [6]): 5.43 | activity relative to 1-benzyl imidazole (thromboxane synthetase [2]; washed rabbit platelets): equal to clearly superior activity | Incr. PGE2 (synthesis of PGE2): +

CCC(CN(C)C)(c1ccccc1)n1ccnc1 (stereo not drawn) [Ex. 1B, 1-[(1-phenyl-1-ethyl)-2-N,N-dimethylaminoethyl]-imidazole]
LD50 at 336 h [1, 7]: 145 mg/kg | LD50 at 336 h [1, 4]: 285 mg/kg | ED50 (gastric mucosa; [8]): 7.1 mg/kg | ED50 values relative to the two routes compared (gastric mucosa): roughly equivalent | ED50 (gastric mucosa; [5]): 8.1 mg/kg | pIC50 (thromboxane synthetase [2]; [6]): 4.76 | Incr. PGE2 (synthesis of PGE2): +

CCC(Cn1ccnc1C)(c1ccccc1)N(C)C (stereo not drawn) [Ex. 2A, 1-[(2-phenyl-2-ethyl)-2-N,N-dimethylaminoethyl]-2-methylimidazole]
LD50 at 336 h [1, 7]: 157 mg/kg | LD50 at 336 h [1, 4]: 500 mg/kg | ED50 (gastric mucosa; [8]): 12 mg/kg | ED50 values relative to the two routes compared (gastric mucosa): roughly equivalent | ED50 (gastric mucosa; [5]): 12.6 mg/kg | IC10 (thromboxane synthetase [2]; washed rabbit platelets, in vitro, 10% inhibition of TXB2 synthesis, read-out: Inh. TX B2 CE10%): 50 µM

CCC(CN(C)C)(c1ccccc1)n1ccnc1C (stereo not drawn) [Ex. 2B, 1-[(1-phenyl-1-ethyl)-2-N,N-dimethylaminoethyl]-2-methylimidazole]
LD50 at 336 h [1, 7]: 137 mg/kg | LD50 at 336 h [1, 4]: 393 mg/kg | ED50 (gastric mucosa; [8]): 12 mg/kg | ED50 values relative to the two routes compared (gastric mucosa): roughly equivalent | ED50 (gastric mucosa; [5]): 10 mg/kg | IC18 (thromboxane synthetase [2]; washed rabbit platelets, in vitro, 18% inhibition of TXB2 synthesis, read-out: Inh. TX B2 CE18%): 50 µM

CCC(Cn1cnc(-c2ccccc2)c1-c1ccccc1)(c1ccccc1)N(C)C (stereo not drawn) [Ex. 3A]
LD50 at 336 h [1, 4]: > 1150 mg/kg

CCC(CN(C)C)(c1ccccc1)n1cnc(-c2ccccc2)c1-c1ccccc1 (stereo not drawn) [Ex. 3B]
LD50 at 336 h [1, 4]: > 1150 mg/kg | ED50 (gastric mucosa; [8]): 26 mg/kg

CCc1nc(C)cn1C(CC)(CN(C)C)c1ccccc1 (stereo not drawn) [Ex. 4B]
LD50 at 336 h [1, 7]: 47 mg/kg | LD50 at 336 h [1, 4]: 298 mg/kg | ED50 (gastric mucosa; [5]): 4 mg/kg

CCC(Cn1ccnc1-c1ccccc1)(c1ccccc1)N(C)C (stereo not drawn) [Ex. 5A]
pIC50 (thromboxane synthetase [2]; [6]): 4.30

CCC(CN(C)C)(c1ccccc1)n1ccnc1-c1ccccc1 (stereo not drawn) [Ex. 5B]
LD50 at 336 h [1, 4]: 840 mg/kg | IC20 (thromboxane synthetase [2]; washed rabbit platelets, in vitro, 20% inhibition of TXB2 synthesis, read-out: Inh. TX B2 CE20%): 50 µM

CN(C)C(C)(C)Cn1ccnc1 [Ex. 6A]
LD50 at 336 h [1, 4]: > 1180 mg/kg | IC41 (thromboxane synthetase [2]; washed rabbit platelets, in vitro, 41% inhibition of TXB2 synthesis, read-out: Inh. TX B2 CE41%): 50 µM

CN(C)CC(C)(C)n1ccnc1 [Ex. 6B]
LD50 at 336 h [1, 4]: > 1180 mg/kg | pIC50 (thromboxane synthetase [2]; [6]): 4.30

CCC(Cc1ccccc1)(Cn1ccnc1)N(C)C (stereo not drawn) [Ex. 7A]
LD50 at 336 h [1, 4]: 480 mg/kg | ED50 (gastric mucosa; [5]): 26.6 mg/kg | pIC50 (thromboxane synthetase [2]; [6]): > 6.00 | Incr. PGE2 (synthesis of PGE2): +

CCC(Cc1ccccc1)(CN(C)C)n1ccnc1 (stereo not drawn) [Ex. 7B]
LD50 at 336 h [1, 4]: 384 mg/kg | ED50 (gastric mucosa; [5]): 8.5 mg/kg | IC35 (thromboxane synthetase [2]; washed rabbit platelets, in vitro, 35% inhibition of TXB2 synthesis, read-out: Inh. TX B2 CE35%): 100 µM

CCCCCC(Cn1ccnc1)(c1ccccc1)N(C)C (stereo not drawn) [Ex. 8A]
LD50 at 336 h [1, 4]: 287 mg/kg | ED50 (gastric mucosa; [5]): 25 mg/kg | pIC50 (thromboxane synthetase [2]; [6]): 6.25 | activity relative to 1-benzyl imidazole (thromboxane synthetase [2]; washed rabbit platelets): equal to clearly superior activity | Incr. PGE2 (synthesis of PGE2): +

CCCCCC(CN(C)C)(c1ccccc1)n1ccnc1 (stereo not drawn) [Ex. 8B]
LD50 at 336 h [1, 7]: 346 mg/kg | LD50 at 336 h [1, 4]: 562 mg/kg | ED50 (gastric mucosa; [5]): 9 mg/kg | pIC50 (thromboxane synthetase [2]; [6]): 5.67 | activity relative to 1-benzyl imidazole (thromboxane synthetase [2]; washed rabbit platelets): equal to clearly superior activity | Incr. PGE2 (synthesis of PGE2): +
